Read-outs that look alike come from different tables or passages of the source.
Assays:
[1] = target: T1, CCK receptor (pancreas) (Rattus norvegicus, UniProt P30551); assay: CCK receptor binding (pancreas) method; parameters: species or system Sprague-Dawley rat; conditions: rat pancreas membranes, 37° C., 30 minutes; read-out: I-CCK-8 Pancreas IC50
T1 construct: The whole pancreas of a male Sprague-Dawley rat; from tissue; host or cells: whole pancreas of male Sprague-Dawley rat, washed membrane homogenate
T1 sequence (P30551 1-444): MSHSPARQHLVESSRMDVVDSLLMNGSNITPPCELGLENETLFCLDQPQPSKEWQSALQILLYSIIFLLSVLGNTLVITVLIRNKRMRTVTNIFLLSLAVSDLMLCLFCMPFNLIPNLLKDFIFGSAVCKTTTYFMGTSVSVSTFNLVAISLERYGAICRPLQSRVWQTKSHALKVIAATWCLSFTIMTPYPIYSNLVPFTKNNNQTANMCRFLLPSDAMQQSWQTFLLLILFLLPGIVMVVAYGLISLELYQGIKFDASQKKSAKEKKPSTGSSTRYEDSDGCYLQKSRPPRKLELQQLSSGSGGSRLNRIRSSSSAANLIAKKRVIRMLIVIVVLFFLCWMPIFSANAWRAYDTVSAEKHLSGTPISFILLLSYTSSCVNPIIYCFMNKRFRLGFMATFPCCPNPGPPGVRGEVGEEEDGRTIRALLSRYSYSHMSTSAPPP
Protocol: (§1) Screening of the novel compounds according to the present invention to determine biological activity and obtain an IC50 value for them, in order to identify significant CCK-antagonism, may be accomplished using an ^125 I-CCK receptor binding assay and in vitro isolated tissue preparations. These tests involve the following:
CCK receptor binding (pancreas) method
[…] (J. Biol. Chem., 254, 9349-9351, 1979). Receptor binding is performed according to Innis and Snyder (Proc. Natl. Acad. Sci., 77, 6917-6921, 1980), with the minor modification of adding the additional protease inhibitors, phenyl-methane sulfonyl fluoride and o-phenanthroline, which have no effect on the ^125 I-CCK receptor binding assay.
The whole pancreas of a male Sprague-Dawley rat (200-350 g), which has been sacrificed by decapitation, is dissected free of fat tissue and homogenized in 20 volumes of ice-cold 50 mM Tris HCl (pH 7.7 at 25° C.) with a Brinkman Polytron PT-10. The homogenates are centrifuged at 48,000 g for 10 minutes, then the resulting pellets are resuspended in Tris Buffer, centrifuged as above, and resuspended in 200 volumes of binding assay buffer (50 mM Tris HCl, pH 7.7 at 25° C., 5 mM dithiothreitol, 0.1 mM bacitracin, 1.2 mM phenylmethane sulfonyl fluoride and 0.5 mM o-phenanthroline).
For the binding assay, 25 μl of buffer (for total binding), or unlabeled CCK-8 sulfate sufficient to give a final concentration of 1 μM of CCK-8 (for nonspecific binding), or the compounds of the formula of the compounds according to the instant invention ([…]), are added to 450 μl of the membrane suspensions in microfuge tubes. All assays are run in duplicate or triplicate, and the reaction mixtures are incubated at 37° C. for 30 minutes and centrifuged in a Beckman Microfuge (4 minutes) immediately after adding 1 ml of ice-cold incubation buffer. The supernatant is aspirated and discarded, and the pellets are counted with a Beckman Gamma 5000.

[2] = target: T2, CCK receptor (brain) (Cavia porcellus, UniProt H0VZC5); assay: CCK receptor binding (brain) method; parameters: species or system Hartley guinea pig; conditions: guinea pig cerebral cortex, 25° C., 2 hours; read-out: ^125 I-CCK Brain IC50
T2 construct: The cerebral cortex is dissected and used as a receptor source; from tissue; host or cells: cerebral cortex of male Hartley guinea pig, membrane homogenate
T2 sequence (H0VZC5 1-426): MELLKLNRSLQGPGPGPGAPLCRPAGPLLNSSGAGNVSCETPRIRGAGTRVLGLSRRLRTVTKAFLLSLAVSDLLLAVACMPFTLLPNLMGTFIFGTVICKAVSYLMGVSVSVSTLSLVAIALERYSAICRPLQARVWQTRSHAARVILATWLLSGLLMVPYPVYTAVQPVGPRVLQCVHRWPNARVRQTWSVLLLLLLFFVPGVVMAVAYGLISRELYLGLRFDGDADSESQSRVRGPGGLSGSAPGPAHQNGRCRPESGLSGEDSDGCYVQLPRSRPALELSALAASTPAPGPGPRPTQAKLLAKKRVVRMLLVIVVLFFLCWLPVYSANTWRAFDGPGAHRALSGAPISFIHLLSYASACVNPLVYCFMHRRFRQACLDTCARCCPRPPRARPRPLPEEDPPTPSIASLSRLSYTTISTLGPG
Protocol: as §1
CCK receptor binding (brain) method
CCK-33 is radiolabeled and the binding is performed according to the description for the pancreas method, with modifications according to Saito et al., J. Neurochem., 37, 483-490, 1981.
Male Hartley guinea pigs (300-500 g) are sacrificed by decapitation, and the brains are removed and placed in ice-cold 50 mM Tris HCl (Trizma-7.4) [pH 7.4 at 25° C.]. The cerebral cortex is dissected and used as a receptor source and each gram of fresh guinea pig brain tissue is homogenized in 10 ml of Tris/Trizma buffer with a Brinkman polytron PT-10. The homogenates are centrifuged at 42,000 g for 15 minutes, then the resulting pellets are resuspended in 80 volumes of binding assay buffer (10 mM N-2-hydroxy-ethylpiperazine-N'-2-ethanesulfonic acid (HEPES), 5 mM MgCl2, 1 mM ethylene glycol-bis-(β-amino-ethyl-ether-N,N'-tetraacetic acid (EGTA), 0.4% BSA and 0.25 mg/ml bacitracin, pH 6.5).
The remainder of the binding assay method is as described for the pancreas method, except that the reaction mixtures are incubated at 25° C. for 2 hours before centrifugation.

[3] = target: T1, CCK receptor (pancreas); conditions: prior compound, U.S. Pat. No. 4,530,790; cited from earlier work
[4] = test system: cholecystokinins in the gut; conditions: prior compound; cited from earlier work
[5] = test system: CCK receptor; conditions: structure-function studies; cited from earlier work

IC50 [1] [µM] | IC50 [2] [µM] | SMILES | IC50 [3] [µM] | selectivity in inhibiting the function of cholecystokinins [4] | CCK-receptor antagonist potency within derivatives of cyclic nucleotides [5]
16.5 | > 100 | CC(C)C[C@@H](NC(=O)OC(C)(C)C)C(=O)N1CC(C[C@@H]2NC(=O)c3ccccc3-n3c2nc2ccccc2c3=O)c2ccccc21 (single isomer, unassigned; isomer 1) [Example 6] |  |  | 
49 | 15 | CC(C)C[C@@H](NC(=O)OC(C)(C)C)C(=O)N1CC(C[C@@H]2NC(=O)c3ccccc3N3C(=O)c4ccccc4NC23)c2ccccc21 (single isomer, unassigned; isomer 1) [Example 8] |  |  | 
> 100 | > 100 | CC(C)C[C@@H](NC(=O)OC(C)(C)C)C(=O)N1CC(C[C@@H]2NC(=O)c3ccccc3-n3c2nc2ccccc2c3=O)c2ccccc21 (single isomer, unassigned; isomer 2) [Example 7] |  |  | 
34 | 100 | CC(C)C[C@@H](NC(=O)OC(C)(C)C)C(=O)N1CC(C[C@@H]2NC(=O)c3ccccc3N3C(=O)c4ccccc4NC23)c2ccccc21 (single isomer, unassigned; isomer 2) [Example 9] |  |  | 
 |  | O=C1N[C@@H](Cc2c[nH]c3ccccc23)c2nc3ccccc3c(=O)n2-c2ccccc21 [7β-[(1H-indol-3-yl)methyl]quinazolino(3,2-A) (1,4)benzodiazepin-5,13(6H,7H)dione] | 26 | selective in inhibiting the function of cholecystokinins in the gut | 
12 | > 100 | O=C1N[C@@H](Cc2c[nH]c3ccccc23)C2Nc3ccccc3C(=O)N2c2ccccc21 (some centres unmarked) [Example 1, 7,7A-dihydro-7-(1H-indol-3-yl)methylquinazolino(3,2-B)-1,4-benzodiazepin-5,13-(6H,9H)-dione monohydrate] |  |  | 
27 | > 100 | O=C1N[C@@H](CC2CNc3ccccc32)c2nc3ccccc3c(=O)n2-c2ccccc21 (some centres unmarked) [Example 2, 7-[(2,3-dihydro-1H-indol-3-yl)methyl]-quinazolino(3,2-A)-1,4-benzodiazepin-5,13-(6H,7H)-dione hemihydrate] |  |  | 
> 100 | > 100 | CC(C)C[C@H](NC(=O)OC(C)(C)C)C(=O)n1cc(C[C@@H]2NC(=O)c3ccccc3-n3c2nc2ccccc2c3=O)c2ccccc21 [Example 3, 7-[(1-[2(S)-((1,1-dimethylethoxy)-carbonyl)amino-4-methylpentanoyl]-1H-indol-3-yl)methyl]quinazolino(3,2-A)-1,4-benzodiazepin-5,13-(6H,7H)-dione sesquihydrate] |  |  | 
3.4 | > 100 | CC(C)C[C@H](NC(=O)OC(C)(C)C)C(=O)N1CC(C[C@@H]2NC(=O)c3ccccc3-n3c2nc2ccccc2c3=O)c2ccccc21 (stereo partly drawn) [Example 4, 7-[(1-[2(S)-((1,1-dimethylethoxy)carbonyl)amino-4-methylpentanoyl]-2,3-dihydro-1H-indol-3-yl)methyl]quinazolino(3,2-A)-1,4-benzodiazepin-5,13-(6H,7H)-dione hemihydrate] |  |  | 
19.2 | > 100 | CC(C)C[C@H](NC(=O)OC(C)(C)C)C(=O)N1CC(C[C@@H]2NC(=O)c3ccccc3N3C(=O)c4ccccc4NC23)c2ccccc21 (stereo partly drawn) [Example 5, 7-[(1-[2(S)-((1,1-dimethylethoxy)carbonyl)amino-4-methylpentanoyl]-2,3-dihydro-1H-indol-3-yl)methyl]quinazolino(3,2-A)-1,4-benzodiazepin-5,13-(5H,7H)-dione hydrate] |  |  | 
> 100 | > 100 | CC(C)C[C@H](NC(=O)OCc1ccccc1)C(=O)n1cc(C[C@@H]2NC(=O)c3ccccc3-n3c2nc2ccccc2c3=O)c2ccccc21 [Example 10, 7-[(1-[2(S)-phenylmethoxycarbonylamino-4-methylpentanoyl]-1H-indol-3-yl)methyl]quinazolino-(3,2-B)-1,4-benzodiazepin-5,13-(6H,7H)-dione] |  |  | 
 |  | CCCC(=O)Nc1nc2c(ncn2[C@@H]2O[C@@H]3COP(=O)(O)O[C@H]3[C@H]2OC(=O)CCC)c(=O)[nH]1 [dibutyryl cyclic GMP] |  |  | most potent

From US4559339A, “Indol-3-yl-quinazolino-1,4-benzodiazepin-5,13-diones” (Merck & Co., Inc., priority 1985, dated 1985)
